Laboratory results published in patent US7015309B1 (The Wistar Institute of Anatomy and Biology, priority 1999, dated 2006).
Read-outs that look alike come from different tables or passages of the source. Non-standard residues stand in square brackets, D forms with d. Residues, ends and D or L forms follow the SMILES beside them. ξ: configuration not given here. *: point of attachment. 5FAM = O=C1OC2(c3ccc(O)cc3Oc3cc(O)ccc32)c2ccc(C(=O)*)cc21; Biotin = O=C1N[C@H]2[C@H](CS[C@H]2CCCCC(=O)*)N1; Ac6c = NC1(C(=O)O)CCCCC1; ξDap = NCC(N)C(=O)O; X2 = O=C1CCCC1N*

Columns and labels:
sheep erythrocytes = assay: Hemolytic activity, release of hemoglobin; details: for Absorbence at 405 nm: 40 μM peptide, one hour, 39° C.
Experimental: To determine whether native and modified pyrrhocoricin peptides were toxic to mammalian cells, several peptides from Example 1 above, a positive control, and a negative control were examined for hemolytic activity. Hemolytic activity was assayed with sheep erythrocytes suspended in Alsever's solution (BioWhittaker, Walkersville, Md.), and diluted with Dulbecco's phosphate-buffered saline, pH 7.2. Thirty μL of a 1% suspension of the red blood cells was incubated with agitation at 39° C. with 30 μL of 40 to 256 μM of each of the following peptides dissolved in phosphate buffered saline for one hour and centrifuged at 1000 g for five minutes. Fifty μL of the supernatant was collected and the release of hemoglobin was detected by measuring the ultraviolet absorbences of triplicate samples of the 40 μM or 256 μM test peptides and the control peptides at 405 nm.

[1] = test system: Agrobacterium tumefaciens; details: 24 h
Experimental: (§1) Growth inhibition assays were performed using the peptides of Example 1 and the Gram positive microorganisms Micrococcus luteus and Bacillus megaterium, and the Gram negative microorganisms, Escherichia coli D22, Agrobacterium tumefaciens, and Salmonella typhimurium. Anti-bacterial assays were performed in sterilized 96-well plates (Nunc F96 microtiter plates) with a final volume of 100 μl as described in Bulet (1996), cited above. Briefly, 90 μl of a suspension of a midlogarithmic phase bacterial culture at an initial 600 nm UV absorbence of 0.001 in Luria-Bertani rich nutrient medium was added to 10 μl of serially diluted peptides in sterilized water. The final peptide concentrations ranged between 0.15 and 80 μM. The plates were incubated at 30° C. for 24 hours with gentle shaking, and the growth inhibition was measured by recording the increase of the UV absorbence at 600 nm on an SLT Labinstruments 400 ATC microplate reader. The experiments were conducted over a 7-month period.

Salmonella typhimurium = test system: Salmonella typhimurium
Experimental: as §1

Bacillus megaterium = test system: Bacillus megaterium
Experimental: as §1

Micrococcus luteus = test system: Micrococcus luteus
Experimental: as §1

COS cells = assay: Direct killing of immortalized COS cells; format: cell-based
From the text: In another toxicity assay, COS cell survival was studied for pyrrhocoricin and cecropin B (Bachem Biosciences, King of Prussia, Pa.) as the positive control.

[2] = human sera, preliminary metabolism studies
Experimental: Owing to the fact that the use of diluted serum increases peptide recovery as well as retards the reaction kinetics to a manageable rate, the experiments were conducted using 25% aqueous sera.
For serum stability studies, 10 μl of an aqueous peptide stock solution containing about 0.8 mg/ml peptide was added to 200 μl 25% aqueous pooled mouse or human serum (Sigma, St. Louis, Mo.), according to the process described in M. F. Powell et al, Pharmacol Res, 10: 1268–1273 (1993). The peptide-serum mixture was thermostated at 37° C. After 0 minutes, 45 minutes, 2 hours and 4 hours, three samples of each peptide were taken and precipitated by the addition of 40 μl 15% aqueous trichloroacetic acid. The samples were stored at 4° C. for 20 minutes and centrifuged. The peptides and some remaining serum proteins were recovered in the supernatant after the trichloroacetic acid precipitation. The supernatants were immediately frozen on dry-ice and 220 μl of each were analyzed on RP-HPLC. A mouse serum and two different batches of the same SIGMA catalog number of human sera (human 1, approximately 1 year old, and human 2, approximately 1 month old) were also used.
The lyophilized samples were redissolved in 0.1 aqueous TFA and submitted for matrix assisted laser desorption/ionization (MALDI-MS).
The missing residues are indicated (e.g—C2 means that the C-terminal two residues are cleaved off). […] In Table 4, the relative amounts of the degradation products are estimated based on the MALDI-MS peak heights. 0=not detected; 1=very weak (below 5000), 2=weak (5–10000), 3=medium (10–15000), 4=strong (15000-uncleaved molecular ion at 25–30000), 5=very strong (above uncleaved molecular ion).

Escherichia coli D22 = details: read-out: IC50 in μM against Escherichia coli D22; 30° C., 24 hours; for Peptide 22 original assay (a)
Experimental: as §1

[3] = read-out: IC50 in μM against Bacillus megaterium, 30° C., 24 hours, for Peptide 22 original assay (a)

Row | Compound | IC50 [1] [µM] | IC50 (Bacillus megaterium; [3]) [µM] | IC50 (Salmonella typhimurium; murium, 24 h) [µM] | IC50 (Micrococcus luteus; 24 h) [µM] | also measured
1 | CC[C@H](C)[C@H](NC(=O)CN)C(=O)NCC(=O)N[C@@H](C)C(=O)N[C@H](C(=O)N[C@@H](CC(C)C)C(=O)N[C@@H](CCCCN)C(=O)N[C@H](C(=O)N[C@@H](CC(C)C)C(=O)N[C@H](C(=O)N[C@H](C(=O)NCC(=O)N[C@@H](CC(C)C)C(=O)N1CCC[C@H]1C(=O)N[C@@H](C)C(=O)N[C@@H](CC(C)C)C(=O)N[C@H](C(=O)N[C@@H](CO)C(=O)N[C@@H](Cc1c[nH]c2ccccc12)C(=O)N[C@H](C(=O)N[C@@H](CCCCN)C(=O)N[C@@H](CCCNC(=N)N)C(=O)N[C@@H](CCCCN)C(=O)N[C@@H](CCCNC(=N)N)C(=O)N[C@@H](CCC(N)=O)C(=O)N[C@@H](CCC(N)=O)C(N)=O)[C@@H](C)CC)[C@@H](C)CC)[C@@H](C)O)[C@@H](C)O)C(C)C)C(C)C [Melittin, reference compound] | – | – | – | – | lowest concentration that lysed sheep erythrocytes (sheep erythrocytes): 5 µM; Absorbence at 405 nm (sheep erythrocytes): 2.99 ± 0.06; lysis of erythrocytes (in words) (sheep erythrocytes; final concentration of 40 μM): lysed the erythrocytes
2 | Ac-KVDKGSYLPRPTPPRPIYNRD-NH2 (C-terminus assumed) [Peptide 20] | 40 | > 80 | – | – | IC50 (Salmonella typhimurium; read-out: IC50 in μM against Salmonella typhimurium, 30° C., 24 hours, for Peptide 22 original assay (a)): > 80 µM; IC50 (Micrococcus luteus; read-out: IC50 in μM against Micrococcus luteus, 30° C., 24 hours, for Peptide 22 original assay (a)): > 80 µM
3 | CC[C@H](C)[C@H](NC(=O)[C@@H]1CCCN1C(=O)[C@H](CCCNC(=N)N)NC(=O)[C@@H]1CCCN1C(=O)[C@@H]1CCCN1C(=O)[C@@H](NC(=O)[C@@H]1CCCN1C(=O)[C@H](CCCNC(=N)N)NC(=O)[C@@H]1CCCN1C(=O)[C@H](CC(C)C)NC(=O)[C@H](Cc1ccc(O)cc1)NC(=O)[C@H](CO)NC(=O)CNC(=O)[C@H](CCCCN)NC(=O)[C@H](CC(=O)O)NC(=O)[C@@H](NC(=O)[C@H](CCCCN)NC(=O)c1ccc2c(c1)C(=O)OC21c2ccc(O)cc2Oc2cc(O)ccc21)C(C)C)[C@@H](C)O)C(=O)N[C@@H](Cc1ccc(O)cc1)C(=O)N[C@@H](CC(N)=O)C(=O)N[C@@H](CCCNC(=N)N)C(=O)N[C@@H](CC(N)=O)C(N)=O [Peptide 19] (5FAM-KVDKGSYLPRPTPPRPIYNRN-NH2) | – | > 80 | – | – | –
4 | Ac-KVDKGSYLPRPTPPRPIYNRN-NH2 (C-terminus assumed) [Peptide 5] | 5 | > 80 | 40 | 40 | –
5 | CC[C@H](C)[C@H](NC(=O)[C@@H]1CCCN1C(=O)[C@H](CCCNC(=N)N)NC(=O)[C@@H]1CCCN1C(=O)[C@@H]1CCCN1C(=O)[C@@H](NC(=O)[C@@H]1CCCN1C(=O)[C@H](CCCNC(=N)N)NC(=O)[C@@H]1CCCN1C(=O)[C@H](CC(C)C)NC(=O)[C@H](Cc1ccc(O)cc1)NC(=O)[C@H](CO)NC(=O)CNC(=O)[C@H](CCCCN)NC(=O)[C@H](CC(=O)O)NC(=O)[C@H](N)C(C)C)[C@@H](C)O)C(=O)N[C@@H](Cc1ccc(O)cc1)C(=O)N[C@@H](CC(N)=O)C(=O)N[C@@H](CCCNC(=N)N)C(=O)N[C@H](CC(N)=O)C(N)=O [Peptide 12] (H-[dV]DKGSYLPRPTPPRPIYNR[dN]-NH2; N-terminus and C-terminus assumed) | 2.5 | > 80 | 5 | 10 | –
6 | Ac-KVDKVDKGSYLPRPTPPRPIYNRN-NH2 (C-terminus assumed) [Peptide 3] | 10 | > 80 | 5 | 80 | –
7 | Cecropin [reference compound] | – | – | – | – | Cell Count after Treatment (COS cells; 5 μM peptide): 6 ± 6; Cell Count after Treatment (COS cells; 10 μM peptide): 6.7 ± 0.3; Cell Count after Treatment (COS cells; 50 μM peptide): 7.3 ± 3.7; effect on COS cell count (in words) (COS cells; at as low as 5 μM concentration): reduced the cell count
8 | CC[C@H](C)[C@H](NC(=O)[C@H](CCCNC(=N)N)NC(=O)[C@@H](NC(=O)[C@H](Cc1ccc(O)cc1)NC(=O)[C@@H](NC(=O)[C@H](C)N)C(C)C)[C@@H](C)O)C(=O)N[C@@H](CCSC)C(=O)N[C@@H](CCSC)C(=O)N[C@@H](CC(N)=O)C(=O)NCC(=O)NCC(=O)N[C@@H](CCCNC(=N)N)C(=O)N[C@@H](CC(C)C)C(=O)N[C@@H](CCCCN)C(=O)N[C@@H](CCCNC(=N)N)C(N)=O [Peptide 31D, reference compound] | – | – | – | – | Absorbence at 405 nm (sheep erythrocytes): 0.160 ± 0.021
9 | Ac-RVDKGSYLPRPTPPRPIYNRN-NH2 (C-terminus assumed) [Peptide 4] | 2.5 | > 80 | 2.5 | 5 | –
10 | CC[C@H](C)[C@H](NC(=O)[C@@H]1CCCN1C(=O)[C@H](CCCNC(=N)N)NC(=O)[C@@H]1CCCN1C(=O)[C@@H]1CCCN1C(=O)[C@@H](NC(=O)[C@@H]1CCCN1C(=O)[C@H](CCCNC(=N)N)NC(=O)[C@@H]1CCCN1C(=O)[C@H](CC(C)C)NC(=O)[C@H](Cc1ccc(O)cc1)NC(=O)[C@H](CO)NC(=O)CNC(=O)[C@H](CCCCN)NC(=O)[C@H](CC(=O)O)NC(=O)[C@@H](NC(=O)[C@H](CCCCN)NC(=O)CCCC[C@@H]1SC[C@@H]2NC(=O)N[C@@H]21)C(C)C)[C@@H](C)O)C(=O)N[C@@H](Cc1ccc(O)cc1)C(=O)N[C@@H](CC(N)=O)C(=O)N[C@@H](CCCNC(=N)N)C(=O)N[C@@H](CC(N)=O)C(N)=O [Peptide 18] (Biotin-KVDKGSYLPRPTPPRPIYNRN-NH2) | – | > 80 | – | – | –
11 | CC[C@H](C)[C@@H]1NC(=O)[C@@H]2CCCN2C(=O)[C@H](CCCNC(=N)N)NC(=O)[C@@H]2CCCN2C(=O)[C@@H]2CCCN2C(=O)[C@H]([C@@H](C)O)NC(=O)[C@@H]2CCCN2C(=O)[C@H](CCCNC(=N)N)NC(=O)[C@@H]2CCCN2C(=O)[C@H](CC(C)C)NC(=O)[C@H](Cc2ccc(O)cc2)NC(=O)[C@H](CO)NC(=O)CNC(=O)[C@H](CCCCN)NC(=O)[C@H](CC(=O)O)NC(=O)[C@H](C(C)C)NC(=O)[C@H](CCCCN)NC(=O)[C@H](CC(C)C)NC(=O)[C@@H]2CCCN2C(=O)[C@H](CCCNC(=N)N)NC(=O)[C@@H]2CCCN2C(=O)[C@H]([C@@H](C)O)NC(=O)[C@@H]2CCCN2C(=O)[C@@H]2CCCN2C(=O)[C@H](CCCNC(=N)N)NC(=O)[C@H](CC(N)=O)NC(=O)[C@H](CCCNC(=N)N)NC(=O)[C@H](CC(N)=O)NC(=O)[C@H](Cc2ccc(O)cc2)NC1=O [Peptide 17] (cyclo(KVDKGSYLPRPTPPRPIYNRNRPPTPRPL)) | 2.5 | – | 5 | 0.6 | endopeptidase cleavage site [2]: between Asn 18 and Arg19; IC50 (Bacillus megaterium; Bacillus, 24 h): 2.5 µM
12 | CC[C@H](C)[C@H](NC(=O)[C@@H]1CCCN1C(=O)[C@H](CCCNC(=N)N)NC(=O)[C@@H]1CCCN1C(=O)[C@@H]1CCCN1C(=O)[C@@H](NC(=O)[C@@H]1CCCN1C(=O)[C@H](CCCNC(=N)N)NC(=O)[C@@H]1CCCN1C(=O)[C@H](CC(C)C)NC(=O)[C@H](Cc1ccc(O)cc1)NC(=O)[C@H](CO)NC(=O)CNC(=O)[C@H](CCCCN)NC(=O)[C@H](CC(=O)O)NC(=O)[C@@H](NC(=O)[C@H](CCCCN)NC(C)=O)C(C)C)[C@@H](C)O)C(=O)N[C@@H](Cc1ccc(O)cc1)C(=O)N[C@@H](CC(N)=O)C(=O)N[C@@H](CCCNC(=N)N)C(=O)NC1CCCC1=O (stereo partly shown) [Peptide 8] (Ac-KVDKGSYLPRPTPPRPIYNR-X2; N-terminus and C-terminus assumed) | 1.25 | – | 2.5 | 5 | IC50 (Bacillus megaterium; Bacillus, 24 h): 20 µM
13 | CC[C@H](C)[C@H](NC(=O)[C@@H]1CCCN1C(=O)[C@H](CCCNC(=N)N)NC(=O)[C@@H]1CCCN1C(=O)[C@@H]1CCCN1C(=O)[C@@H](NC(=O)[C@@H]1CCCN1C(=O)[C@H](CCCNC(=N)N)NC(=O)[C@@H]1CCCN1C(=O)[C@H](CC(C)C)NC(=O)[C@H](Cc1ccccc1)NC(=O)[C@H](C)NC(=O)CNC(=O)[C@H](CCCCN)NC(=O)[C@H](CC(=O)O)NC(=O)C1(N)CCCCC1)[C@@H](C)O)C(=O)N[C@@H](Cc1ccc(O)cc1)C(=O)N[C@@H](CC(N)=O)C(=O)N[C@@H](CCCNC(=N)N)C(=O)NC(CNC(C)=O)C(N)=O (stereo partly shown) [Peptide 23] (H-[Ac6c]DKGAFLPRPTPPRPIYNR[ξDap](Ac)-NH2) | – | – | – | 5 | IC50 (Escherichia coli D22): 20 µM; IC50 (Bacillus megaterium; Bacillus, 24 h): 40 µM
14 | CC[C@H](C)[C@H](NC(=O)[C@@H]1CCCN1C(=O)[C@H](CCCNC(=N)N)NC(=O)[C@@H]1CCCN1C(=O)[C@@H]1CCCN1C(=O)[C@@H](NC(=O)[C@@H]1CCCN1C(=O)[C@H](CCCNC(=N)N)NC(=O)[C@@H]1CCCN1C(=O)[C@H](CC(C)C)NC(=O)[C@H](Cc1ccc(O)cc1)NC(=O)[C@H](CO)NC(=O)CNC(=O)[C@H](CCCCN)NC(=O)[C@H](CC(=O)O)NC(=O)C1(N)CCCCC1)[C@@H](C)O)C(=O)N[C@@H](Cc1ccc(O)cc1)C(=O)N[C@@H](CC(N)=O)C(=O)N[C@@H](CCCNC(=N)N)C(=O)N[C@@H](CC(N)=O)C(N)=O [Peptide 6] (H-[Ac6c]DKGSYLPRPTPPRPIYNRN-NH2; N-terminus and C-terminus assumed) | 1.25 | – | 2.5 | 5 | IC50 (Bacillus megaterium; Bacillus, 24 h): 10 µM
